Values of other authors as cited in paper PMC4891577, “Exploiting Phenylpropanoid Derivatives to Enhance the Nutraceutical Values of Cereals and Legumes” (Frontiers in Plant Science, 2016).

Test system: Caco-2 cells
Set-up: method as in Hart et al., 2015
Details: polyphenols of black bean seed coats; ref Hart et al., 2015

**Q.** With `O=c1c(O[C@@H]2O[C@H](CO)[C@@H](O)[C@H](O)[C@H]2O)c(-c2ccc(O)c(O)c2)oc2cc(O)cc(O)c12` [quercetin 3-glucoside] as the molecule, how does the “effect on Fe uptake” value read?
**A.** inhibit Fe uptake

**Q.** For `O=c1c(OC2O[C@H](CO)[C@@H](O)[C@H](O)[C@H]2O)c(-c2cc(O)c(O)c(O)c2)oc2cc(O)cc(O)c12` (stereo partly drawn) [myricetin 3-glucoside], which “effect on Fe uptake” value is on record?
**A.** inhibit Fe uptake

**Q.** With `O=c1c(O)c(-c2cc(O)c(O)c(O)c2)oc2cc(O)cc(O)c12` [myricetin] as the molecule, how does the “effect on Fe uptake” value read?
**A.** inhibit Fe uptake

**Q.** For `O=C(O)c1ccc(O)c(O)c1` [3,4-dihydroxybenzoic acid], which “effect on Fe uptake” value is on record?
**A.** promote Fe uptake

**Q.** Which “effect on Fe uptake” value does the source give for `O=c1c(O)c(-c2ccc(O)c(O)c2)oc2cc(O)cc(O)c12` [quercetin] here?
**A.** inhibit Fe uptake

**Q.** For `O.Oc1cc(O)c2c(c1)O[C@H](c1ccc(O)c(O)c1)[C@@H](O)C2` [Catechin], which “effect on Fe uptake” value is on record?
**A.** promote Fe uptake

**Q.** With `O=c1c(O)c(-c2ccc(O)cc2)oc2cc(O)cc(O)c12` [kaempferol] as the molecule, how does the “effect on Fe uptake” value read?
**A.** promote Fe uptake

**Q.** Which “effect on Fe uptake” value does the source give for `O=c1c(O[C@@H]2O[C@H](CO)[C@@H](O)[C@H](O)[C@H]2O)c(-c2ccc(O)cc2)oc2cc(O)cc(O)c12` [kaempferol 3-glucoside] here?
**A.** promote Fe uptake

Test system: lipogenic proteins
Set-up: method as in Chavez-Santoscoy et al., 2014; Ramírez-Jiménez et al., 2015
Details: black bean flavonoid; ref Chavez-Santoscoy et al., 2014; Ramírez-Jiménez et al., 2015

**Q.** With `O=c1c(O[C@@H]2O[C@H](CO)[C@@H](O)[C@H](O)[C@H]2O)c(-c2ccc(O)c(O)c2)oc2cc(O)cc(O)c12` [quercetin 3-glucoside] as the molecule, how does the “effect on expression of lipogenic proteins” value read?
**A.** strong effects on down-regulation of expression of lipogenic proteins
